The record followed here is article PMC10568492 (Journal of medicinal chemistry, 2023).

Marks after values point to notes of the source that are not given here.

The nature of series [1]: Oral exposure in mice. The settings on record: for Plasma drug concentration (mean ± SD): mice, 10 mg/kg oral gavage. Format: in vivo, mouse.
Series [2] concerns the target T1, AR-LBD protein (Rattus norvegicus, UniProt P15207).
T1 sequence (P15207 651-882 limits assumed): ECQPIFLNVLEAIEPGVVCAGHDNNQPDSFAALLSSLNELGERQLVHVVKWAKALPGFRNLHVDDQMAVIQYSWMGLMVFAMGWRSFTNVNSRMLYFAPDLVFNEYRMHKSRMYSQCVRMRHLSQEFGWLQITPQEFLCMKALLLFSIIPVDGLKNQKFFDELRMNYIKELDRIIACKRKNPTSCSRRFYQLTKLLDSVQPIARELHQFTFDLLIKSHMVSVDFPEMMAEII
The series is described as follows: AR fluorescence-polarization. Format: binding.

Series [3] deals with T2, AR protein (Homo sapiens, UniProt P10275).
T2 sequence (P10275 1-920): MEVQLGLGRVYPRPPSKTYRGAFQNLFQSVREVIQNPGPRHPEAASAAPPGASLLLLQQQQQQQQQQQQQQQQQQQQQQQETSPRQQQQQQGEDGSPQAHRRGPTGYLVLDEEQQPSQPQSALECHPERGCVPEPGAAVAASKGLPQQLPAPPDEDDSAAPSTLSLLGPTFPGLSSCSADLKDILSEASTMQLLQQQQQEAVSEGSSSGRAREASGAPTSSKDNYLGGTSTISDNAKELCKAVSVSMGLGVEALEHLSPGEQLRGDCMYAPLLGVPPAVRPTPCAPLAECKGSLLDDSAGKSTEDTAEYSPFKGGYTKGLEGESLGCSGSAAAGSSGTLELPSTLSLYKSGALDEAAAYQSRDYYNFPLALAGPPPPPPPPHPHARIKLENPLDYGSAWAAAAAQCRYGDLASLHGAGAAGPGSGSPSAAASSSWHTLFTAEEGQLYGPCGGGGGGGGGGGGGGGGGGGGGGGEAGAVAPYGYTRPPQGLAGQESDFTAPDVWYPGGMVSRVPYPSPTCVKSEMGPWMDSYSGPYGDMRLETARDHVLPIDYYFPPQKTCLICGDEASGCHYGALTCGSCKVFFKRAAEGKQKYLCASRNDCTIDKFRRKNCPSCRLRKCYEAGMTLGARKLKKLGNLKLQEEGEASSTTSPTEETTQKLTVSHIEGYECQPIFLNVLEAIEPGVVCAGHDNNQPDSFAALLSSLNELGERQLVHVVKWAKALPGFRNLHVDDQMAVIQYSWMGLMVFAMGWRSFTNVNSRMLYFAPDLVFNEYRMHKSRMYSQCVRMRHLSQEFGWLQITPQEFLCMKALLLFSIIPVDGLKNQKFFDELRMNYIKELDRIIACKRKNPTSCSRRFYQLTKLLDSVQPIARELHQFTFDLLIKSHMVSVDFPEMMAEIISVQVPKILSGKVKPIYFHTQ
Briefly: AR protein degradation in VCaP cells, Western blotting. Format: cell-based. Particulars: VCaP and LNCaP cell lines. On the technique in general: In western blotting, separated proteins are transferred to a membrane and probed.

Series [4] relates to KLK3 (PSA) gene. The series is described as follows: Suppression of KLK3. The format is cell-based, human.
A short description of series [5]: PK study in mouse. The settings on record: male, ICR, plasma, po, 5 mg/kg. Format: in vivo.
A short description of series [6]: PK study in rat. Format: in vivo. Particulars: male, Sprague-Dawley, plasma, po, 10 mg/kg.
Series [7] can be described thus: PK study in dog. The settings on record: male, beagle, plasma, po, 1 mg/kg. Format: in vivo.
The test system of series [8] is VCaP xenograft tumor. The series is described as follows: Antitumor activity in VCaP xenograft tumor model in SCID mice. The format is in vivo, mouse. The settings on record: all doses tested (3.75-25 mg/kg), entire experiment.
The target of series [9] is T2, AR protein. Briefly: Multiplexed quantitative proteomics analysis in VCaP cells. The settings on record: 10 μM, 24 h. Format: cell-based.
The mark [10] stands for this setting: male, SCID, mouse, plasma, po, 10 mg/kg.

In the case of “2-chloro-4-(8-(4-(4-(4-(2-(2,6-dioxopiperidin-3-yl)-1,3-dioxoisoindolin-5-yl)piperazin-1-yl)piperidin-1-yl)benzoyl)-2,8-diazaspiro[4.5]decan-2-yl)benzonitrile [Compound 20]”, the “Plasma drug concentration (mean ± SD)” value in series [1] (1 h) is reported as 82^b ng/ml; in [1] (3 h), 57^b ng/ml; in series [1] (6 h) it was 91^b ng/ml; in [1] (24 h) it was 3^b ng/ml.

As to `CN1CCN(c2ccc(C(=O)N3CCC4(CC3)CCN(c3ccc(C#N)c(Cl)c3)C4)cc2)CC1` [Compound 14b], the “times more potent than 14a in AR binding” value in series [2] (vs 14a) stood at 2.

With `N#Cc1ccc(N2CCC3(CCN(c4ccc(C(=O)N5CCN(C6CN(c7ccc8c(c7)C(=O)N(C7CCC(=O)NC7=O)C8=O)C6)CC5)cc4)CC3)C2)cc1Cl` (stereo not drawn) [Compound 27, 2-chloro-4-(8-(4-(4-(1-(2-(2,6-dioxopiperidin-3-yl)-1,3-dioxoisoindolin-5-yl)azetidin-3-yl)piperazine-1-carbonyl)phenyl)-2,8-diazaspiro[4.5]decan-2-yl)benzonitrile], in series [1] (setting [10]), the concentration at 1 h came out at 501 ng/mL, the concentration at 3 h was found to be 171 ng/mL, the concentration at 6 h was 246 ng/mL and the concentration at 24 h is 44 ng/mL. Moreover, in series [1] (1 h, 10 mg/kg), the “Plasma drug concentration (mean ± SD)” value stood at 501 ± 106 ng/mL. For the same compound, in series [1] (3 h, 10 mg/kg), the “Plasma drug concentration (mean ± SD)” value was determined as 171 ± 83 ng/mL. Also, the “Plasma drug concentration (mean ± SD)” value in series [1] (6 h, 10 mg/kg) was determined as 246 ± 27 ng/mL. The “Plasma drug concentration (mean ± SD)” value in series [1] (24 h, 10 mg/kg) is 44 ± 5 ng/mL.

`C[C@H]1CC2(CCN(c3ccc(C(=O)N4CCN(C5CN(c6ccc7c(c6)C(=O)N(C6CCC(=O)NC6=O)C7=O)C5)CC4)cc3)CC2)CN1c1ccc(C#N)c(Cl)c1` (stereo partly drawn) [Compound 30, 2-chloro-4-((3S)-8-(4-(4-(1-(2-(2,6-dioxopiperidin-3-yl)-1,3-dioxoisoindolin-5-yl)azetidin-3-yl)piperazine-1-carbonyl)phenyl)-3-methyl-2,8-diazaspiro[4.5]decan-2-yl)benzonitrile]: the “times more potent than ARV-110 in inducing AR degradation” value in [3] is 6-9. Besides, the “times more potent than Enzalutamide in suppressing KLK3 gene expression” value in series [4] (VCaP and LNCaP cell lines) is “at least 30”. In addition, the “suppression of expression of KLK3 gene” value in series [4] (VCaP, 1 nM, 24 h) turned out to be 51%. For the same compound, the AUC(0-t) (as a rule, the area under the concentration-time curve up to a stated or last time point) in [5] stood at 11700 ng·h/mL; in series [6], 12800 ng·h/mL. Also, the Cmax – broadly, the highest concentration seen after dosing – in [5] was determined as 1480 ng/mL; in [6], 1470 ng/mL. Further, the AUC (commonly the area under the concentration-time curve, a measure of exposure) in series [7] came out at 1820 ng·h/mL. The signs of toxicity entry in series [8] is on record as “no signs of toxicity”.

For `N#Cc1ccc(N2CCC3(CCN(c4ccc(C(=O)N5CCCN(C6CCN(c7ccc8c(c7)C(=O)N(C7CCC(=O)NC7=O)C8=O)CC6)CC5)cc4)CC3)C2)cc1Cl` (stereo not drawn) [Compound 21, 2-chloro-4-(8-(4-(4-(1-(2-(2,6-dioxopiperidin-3-yl)-1,3-dioxoisoindolin-5-yl)piperidin-4-yl)-1,4-diazepane-1-carbonyl)phenyl)-2,8-diazaspiro[4.5]decan-2-yl)benzonitrile], in series [1] (setting [10]), the concentration at 1 h turned out to be 46 ± 16 ng/mL, the concentration at 3 h was found to be 8 ± 1 ng/mL and the concentration at 6 h stood at 11 ± 3 ng/mL.

For the compound `N#Cc1ccc(N2CCC3(CCN(c4ccccc4)CC3)C2)cc1Cl` [Compound 15a], the IC50 (in general, the concentration that inhibits the measured activity by half) in series [2] is > 1000 nM.

On to `C[C@H]1CC2(CCN(c3ccc(C(=O)N4CCN(C)CC4)cc3)CC2)CN1c1ccc(C#N)c(Cl)c1` [ARi-12, (S)-2-chloro-4-(3-methyl-8-(4-(4-methylpiperazine-1-carbonyl)phenyl)-2,8-diazaspiro[4.5]decan-2-yl)benzonitrile], for which, in series [9], the “effect on protein levels (proteomics)” value is reported as “did not significantly alter the levels of any proteins analyzed”.
